Calls of active or inactive are those of the source. The rule behind the calls is not given here. Starred links: 1 amine or outer side, 2 acyl side, 3 side chain; linkers in the order of their positions; H or OH if unused. Non-standard residues stand in square brackets, D forms with d. Residues, ends and D or L forms follow the SMILES beside them. azaTyr = O=C(N(Cc1ccc(O)cc1)N[*:1])[*:2]
Legend:
Aorta [1] = test: Inhibition of vascular sprouting in CD36+/+ C57BL/6 mouse aortic rings exposed on day 4 to 6; format: functional, tissue-based
Aorta [2] = test: Inhibition of vascular sprouting in CD36-/- C57BL/6 mouse aortic rings exposed on day 4 to 6; format: functional, tissue-based
Mus musculus [3] = test: Inhibition of choroidal neovascularization in CD36+/+ C57BL/6 mouse model of FITC-conjugated dextran infusion following laser-induced posterior retinal injury administered in to vitreous tissue; format: functional
Mus musculus [4] = test: Inhibition of choroidal neovascularization in CD36-/- C57BL/6 mouse model of FITC-conjugated dextran infusion following laser-induced posterior retinal injury administered in to vitreous tissue; format: functional, organism-based

With `C[C@H](NC(=O)[C@@H](Cc1c[nH]c2ccccc12)NC(=O)[C@@H](N)Cc1cnc[nH]1)C(=O)NN(Cc1ccc(O)cc1)C(=O)N[C@H](Cc1ccccc1)C(=O)N[C@@H](CCCCN)C(N)=O` (H-H[dW]A[azaTyr][dF]K-NH2) the inhibition (Aorta [1]) was “Dose-dependent effect”, the inhibition (Aorta [2]) was “inactive” and the “inhibition (INH)” value (Mus musculus [3]) was >50%. The inhibition (Mus musculus [4]) was “inactive”.

— ChEMBL document CHEMBL4476864, “Azapeptides as cd36 binding compounds” (2013)
